# Assay: Assessing Antiviral Activity Against Human Cytomegalovirus (HCMV): To assess their antiviral activity, some compounds were tested against human cytomegalovirus (HCMV) in vitro. Human […] cells were grown to confluency (˜1.0×10^4 cells/well) in 96-well plate format in Dulbecco's Modified Eagle Medium (DMFM) supplemented with 10% fetal bovine serum (FBS) 2 mM L-glutamine, 0.1 mM non-essential amino acids, 10 mM HEPES, and 100 U/ml each of penicillin and streptomycin and infected with an HCMV variant expressing mCherry tagged pUL99 (the product of late viral UL99 gene) at a multiplicity of 0.01 infectious unit (IU) per cell. Assays were performed in triplicate. One hour later, medium of the cells was replaced with fresh medium containing the indicated compounds at 25, 12.5, 6.25, 3.13, 1.56, 0.78, 0.39 μM or the carrier in which the compounds are dissolved (DMSO). Final concentration of DMSO was 0.5% in each treatment. Virus yield in the culture was determined at 7 days post infection by quantification of fluorescent (mCherry positive) cells in each well by fluorescent microscopy. Results were plotted using CDD Vault (CDD Vault was developed by Collaborative Drug Discovery, Inc., 1633 Bayshore Hwy, Suite 342, Burlingame, Calif. 94010) in order to calculate IC50s.
# Assay type: cell-based
structure (smiles),measurement,value
NC(=O)c1cccc(Cc2cnc(N3CCc4cc5c(cc4C3)OCCO5)s2)c1,IC50,8.63 µM

# — ChEMBL document CHEMBL5729352, “Broad spectrum antiviral compositions and methods” (2022)
